Legend:
[1] = tested on: E15 DIV3 mouse hippocampal neurons; test: proNT-induced growth cone collapse in cultured hippocampal neurons (live imaging and immunofluorescence); assay type: cell-based; settings: for growth cone collapse caused by the inhibitor alone: DIV3 hippocampal neurons, 5 μM EHT1864 30 min, 100 nM ITX3 45 min
Protocol: (§1) To assay which pathways are involved in filopodial collapse, 5-10 ng/ml proNGF, 10 ng/ml proBDNF, 25-50 ng/ml BDNF (Peprotech) or 25-100 ng/ml NGF (Harlan) was added to E15 primary hippocampal neurons for 20 min before fixation. In some cases, cells were pretreated with 100 nM K-252a (Calbiochem) for 20 min, 100 nM Gö6976 (Calbiochem) for 1 hour, 5 μM EHT1864 (Sigma) for 30 min or 100 nM ITX3 (ChemBridge Corporation, cat. no. 6007262) for 45 min. To block SorCS2, cells were incubated with 20 μg/ml anti-SorCS2 or control IgG for 20 min on ice before proNGF addition at 37° C.
(§2) DIV3 hippocampal neurons were fixed in 4% paraformaldehyde/20% sucrose for 10 min. The fixative was quenched with 50 mM NH4Cl in PBS for 5 min and cells were permeabilized with 0.1% TritonX-100 in PBS for 2 min. Alternatively, cells were fixed with ice-cold methanol for 5 min. Coverslips were blocked with 10% normal donkey serum, 2% bovine serum albumin and 0.25% fish skin gelatin in Tris-buffered saline for 30 min, incubated with primary antibodies diluted in blocking solution for 30 min, washed three times with Tris-buffered saline/0.25% fish skin gelatin, incubated with secondary antibodies mixed with Hoechst in blocking buffer for additional 30 min, washed and mounted using Mowio1488. Cells were imaged using a LSM510 laser-scanning confocal microscope equipped with a 40× Plan Neofluor NA1.3 DIC oil-immersion objective (Carl Zeiss Microimaging). Images were processed using LSM510 software (Zeiss) and ImageJ (NIH).
Cells were plated on gridded glass bottom dishes (MatTek Corporation) and imaged at DIV3 in phenol red-free Neurobasal medium (Invitrogen) supplemented with 30 mM HEPES-NaOH, pH7.4 using an Olympus IX71 inverted microscope driven by IPLab software (BD Biosciences) and equipped with a 60× PlanApoN objective (NA 1.42), a Hamamatsu EM-CCD camera and a heated stage maintained at 37° C., or driven by softWoRX software (version 3.7.1, DeltaVision), and equipped with a CoolSnap HQ2 camera (Photometrics) and an environmental chamber maintained at 37° C. Images were taken every 15 seconds. After live imaging cells were fixed, counterstained for p75, located by grid number and examined for p75 expression. All movies were exported and processed using IPLab (BD Biosciences), softWoRX (version 3.7.1, DeltaVision) and ImageJ (NIH) software. Filopodia length and speed were both analyzed using ImageJ (NIH) software. For this, two times ten consecutive frames, spaced 5-10 min apart, were analyzed before and again after treatment. In the length analysis, a line was drawn along an individual filopodium and measured at every time point, and the measurements were averaged before and after treatment. For the speed analysis, the filopodial tip was tracked using the ImageJ Manual Tracking plugin. Up to four individual filopodia were analyzed per movie, and a minimum of four movies taken from separate experiments were analyzed per condition.
Primary hippocampal and cortical neurons were isolated from E15 C57BL/6 mouse embryos as previously described (PEREIRA, D. B. et al., Journal of Neuroscience 27:4859-4869 (2007)). Briefly, neurons were dissociated by incubation with 0.05% trypsin at 37° C. for 8 min followed by trituration with fire-polished glass Pasteur pipettes. Cells were plated on poly-D-lysine coated dishes and grown in Neurobasal medium containing B27, 0.5 mM glutamine (all Invitrogen) and 10 μM 5-fluorodeoxyuridine. Hippocampal neurons were transfected at DIV2 using Lipofectamine2000 (Invitrogen). For coverslips in a 24-well plate, 0.5 μg plasmid were mixed with 0.5 μl Lipofectamine2000, and for glass bottom dishes, 1.5 μg plasmid were mixed with 1.5 μl Lipofectamine2000. The complexes were added to the cells for 30-45 min, and then neurons were placed back into preconditioned media until analysis the following day. […]

Rac = Rac activity assay (GST-Pak-CRIB pull-down of activated Rac); assay type: cell-based, mouse; settings: primary neuronal cultures
Protocol: Rac activity assays were performed as described previously (NEUBRAND, V. E. et al., Journal of Cell Science 123:2111-2123 (2010)). […] Cells were lysed in lysis buffer supplemented with 10 mM MgCl, lysates were cleared by centrifugation at 9000 g for 1 min, and cleared lysates were incubated with GST or GST-Pak-CRIB beads for 30 min at 4° C. Beads were washed and isolated active Rac was analyzed by Western blot. As a control, extra lysates were incubated with 0.1 mM GDP or 0.1 mM GTPγS for 30 min at room temperature before incubation with GST-Pak-CRIB beads. Western blots were analyzed by densitometry using ImageJ software, and isolated active Rac was normalized to the input.
GST and GST-Pak-CRIB proteins were expressed in E. coli BL21DE3 cells at 25° C. for 3 hours. Bacteria were disrupted by incubation with PBS supplemented with lysozyme on ice for 30 min and subsequent addition of 1 mM MgCl2, 0.1% TritonX-100 and 0.1 mg/ml DNAse for an additional 30 min. Bacterial lysates were cleared by centrifugation for 5 min at 3000 g and cleared lysates were incubated with glutathione sepharose. Beads were washed and the purity of the recombinant proteins was analyzed by Coomassie blue staining. 20 μg of sepharose coupled purified protein was used per reaction.

[2] = tested on: E15 DIV3 mouse hippocampal neurons; test: Pretreatment with antibodies or inhibitors before proNGF addition, growth cone / filopodial collapse; assay type: cell-based; settings: for effect of pretreatment on proNGF-induced growth cone / filopodial collapse: pretreatment before proNGF for 20 min, 20 μg/ml antibody or control IgG 20 min, 100 nM Gö6976
Protocol: as §1, §2
Primary hippocampal and cortical neurons were isolated from E15 C57BL/6 mouse embryos as previously described (PEREIRA, D. B. et al., Journal of Neuroscience 27:4859-4869 (2007)). Briefly, neurons were dissociated by incubation with 0.05% trypsin at 37° C. for 8 min followed by trituration with fire-polished glass Pasteur pipettes. Cells were plated on poly-D-lysine coated dishes and grown in Neurobasal medium containing B27, 0.5 mM glutamine (all Invitrogen) and 10 μM 5-fluorodeoxyuridine. Hippocampal neurons were transfected at DIV2 using Lipofectamine2000 (Invitrogen). For coverslips in a 24-well plate, 0.5 μg plasmid were mixed with 0.5 μl Lipofectamine2000, and for glass bottom dishes, 1.5 μg plasmid were mixed with 1.5 μl Lipofectamine2000. The complexes were added to the cells for 30-45 min, and then neurons were placed back into preconditioned media until analysis the following day. HT1080 cells were grown in DMEM/10% fetal bovine serum (both Invitrogen) and transfected using the AMAXA nucleofector (Lonza) according to manufacturer's instructions. 293FT cells were grown in DMEM/10% fetal bovine serum and transfected with Lipofectamine2000 according to manufacturer's instructions.

Molecule: Cc1cc(/C=c2/sc3nc4ccccc4n3c2=O)c(C)n1-c1ccccc1 [ITX3, reference compound]
- growth cone collapse caused by the inhibitor alone [1]: led to the collapse of growth cone structures
- Rac activity after inhibitor treatment (Rac): striking decrease in Rac activity

Molecule: O=c1cc(CN2CCOCC2)occ1OCCCCCSc1ccnc2cc(C(F)(F)F)ccc12 [EHT 1864, reference compound]
- growth cone collapse caused by the inhibitor alone [1]: led to the collapse of growth cone structures
- Rac activity after inhibitor treatment (Rac): striking decrease in Rac activity

Molecule: 20-28: small peptide inhibitor 20-28 (of PKC) (FARKGALRQ; UniProt P17252 20-28, looked up, fragment)
- effect of pretreatment on proNGF-induced growth cone / filopodial collapse [2]: exposure to proNGF failed to induce collapse of actin-rich structures

Molecule: Cn1c2ccccc2c2c3c(c4c5ccccc5n(CCC#N)c4c21)CNC3=O [Gö6976]
- effect of the agent alone on neuronal / actin morphology ([2]; agent alone, without proNGF): had no effect on actin morphology
- effect of pretreatment on proNGF-induced growth cone / filopodial collapse [2]: exposure to proNGF failed to induce collapse of actin-rich structures

Molecule: C3 transferase [reference compound]
- growth cone collapse caused by the inhibitor alone [1]: neither induced growth cone collapse
- effect of pretreatment on proNGF-induced growth cone / filopodial collapse [2]: nor did they interferen with proNGF-mediated growth cone collapse

Molecule: C[C@@H](N)[C@H]1CC[C@H](C(=O)Nc2ccncc2)CC1 [Y-27632, reference compound]
- growth cone collapse caused by the inhibitor alone [1]: neither induced growth cone collapse
- effect of pretreatment on proNGF-induced growth cone / filopodial collapse [2]: nor did they interferen with proNGF-mediated growth cone collapse

B1: NGF: mature nerve growth factor (Harlan) (protein, UniProt P01139 122-241, looked up)
Beta-nerve growth factor: SSTHPVFHMGEFSVCDSVSVWVGDKTTATDIKGKEVTVLAEVNINNSVFRQYFFETKCRASNPVESGCRGIDSKHWNSYCTTTHTFVKALTTDEKQAAWRFIRIDTACVCVLSRKATRRG
- growth cone collapse ([1]; p75NTR-positive cells, 20 min exposure, 10 ng/ml proNGF, 10 ng/ml proBDNF with K252a, 5 ng/ml NGF): nor did NGF lead to actin rearrangements

Reference: patent US20130336988A1, “METHODS FOR TREATING EARLY STAGE OR MILD NEUROLOGICAL DISORDERS” (NEW YORK UNIVERSITY, priority 2010, published 2013)
